Patent US20260256714A1 (priority 2022, published 2026)

Experiments:
glucocorticoid receptor = biological target: T1, glucocorticoid receptor (Homo sapiens, UniProt P04150); assay: fluorescence polarization competition assay (POLARSCREEN Glucocorticoid Receptor Competitor Assay Kit, Red); assay type: binding
T1 sequence (P04150 1-777): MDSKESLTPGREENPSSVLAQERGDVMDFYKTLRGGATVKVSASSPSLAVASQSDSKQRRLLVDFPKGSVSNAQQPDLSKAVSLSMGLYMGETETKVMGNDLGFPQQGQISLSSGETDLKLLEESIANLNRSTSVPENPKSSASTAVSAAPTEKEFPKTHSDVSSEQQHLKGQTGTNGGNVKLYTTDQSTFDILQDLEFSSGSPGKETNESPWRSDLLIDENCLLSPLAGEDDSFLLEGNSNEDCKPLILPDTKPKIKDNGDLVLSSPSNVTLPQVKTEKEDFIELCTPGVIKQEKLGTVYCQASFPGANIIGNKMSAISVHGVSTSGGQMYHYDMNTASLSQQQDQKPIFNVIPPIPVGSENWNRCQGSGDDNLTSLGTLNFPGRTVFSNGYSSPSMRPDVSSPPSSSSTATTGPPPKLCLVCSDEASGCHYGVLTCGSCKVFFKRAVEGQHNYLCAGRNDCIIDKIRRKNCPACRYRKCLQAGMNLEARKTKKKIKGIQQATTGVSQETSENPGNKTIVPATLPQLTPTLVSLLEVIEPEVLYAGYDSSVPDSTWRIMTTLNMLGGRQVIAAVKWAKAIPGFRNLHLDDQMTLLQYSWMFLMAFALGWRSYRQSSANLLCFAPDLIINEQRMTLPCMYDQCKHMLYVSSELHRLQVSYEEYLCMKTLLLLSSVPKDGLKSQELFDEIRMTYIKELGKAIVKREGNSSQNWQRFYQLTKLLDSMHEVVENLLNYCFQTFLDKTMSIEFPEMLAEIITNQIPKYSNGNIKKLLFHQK
Protocol: The principle of the assay is to determine the binding affinity of a small molecule compound to glucocorticoid receptor by measuring the decrease in polarization caused by the failure of the fluormone tracer to bind to the glucocorticoid receptor in the presence of a small molecule compound that competitively binds to the glucocorticoid receptor.
The excitation wavelength used for the measurement was 535 nm, and the emission wavelength was 590 nm. This experiment was performed three times using the same method and the average value was calculated. A dose-response curve was derived using the measured values, and the IC50 value was calculated by finding the concentration of the sample corresponding to half of the highest measured value.

[1] = tested on: intracellular glucocorticoid receptor; assay: luciferase assay in GR-GAL4 Reporter (Luc)-HEK293 cells; assay type: cell-based; settings: different concentrations, 1 hour before dexamethasone 20 nM, 24 hours incubation
Protocol: In this Example, transfected cells GR-GAL4 Reporter (Luc)-HEK293 (BPS Bioscience, USA) containing a recombinant gene in which luciferase is recombined into the promoter site of GRE were used. Transformed cells were seeded at 30,000 cells per well in 96 wells and stabilized for 16 hours. […] After 1 hour, the cells were treated with dexamethasone, a glucocorticoid agonist, at a concentration of 20 nM and incubated for 24 hours. 100 μL of ONE-STEP™ Luciferase Assay System (BPS Bioscience, USA) was added per well and reacted for 10 minutes, and then luminescence was measured using SpectraMax iD3 (Molecular Devices, USA).

3T3-L1 cells = assay: Oil Red O staining of MDI-differentiated 3T3-L1 preadipocytes (fat accumulation); assay type: cell-based; settings: 0.5 or 1 μM every 48 hours, 6 days of MDI differentiation
Protocol: To differentiate 3T3-L1 cells grown to a confluent state into adipocytes, they were cultured in DMEM medium supplemented with MDI {0.5 mM isobutyl-methylxanthine, 1 μM dexamethasone, and 5 μg/mL insulin} for 48 h, then cultured in DMEM medium supplemented with 5 μg/mL insulin for 48 h, and then cultured in a medium containing 10% fetal bovine serum for 48 h.
The cells were incubated for a total of 6 days, and the cultures were removed at which point differentiation was complete, followed by Oil Red O staining. The cells were fixed with 35 to 40% formaldehyde for 15 minutes, washed with PBS, and stained with Oil Red O solution for 20 minutes. After completion of staining, the cells were washed four times with PBS, dissolved in isopropanol (2-propanol), and O.D. values were measured at 515 nm.

In the case of C[C@@]1(C(=O)O)CC[C@]2(C)CC[C@]3(C)C4=CC(=O)c5c(cc(O)c(O)c5C=O)[C@]4(C)CC[C@@]3(C)[C@@H]2C1 [demethylzeylasteral, (2R,4aS,6aR,6aS,14aS,14bR)-9-formyl-10,11-dihydroxy-2,4a,6a,6a,14a-pentamethyl-8-oxo-1,3,4,5,6,13,14,14b-octahydropicene-2-carboxylic acid], the IC50 (glucocorticoid receptor) is reported as 1190 nM, the “inhibitory effect on intracellular glucocorticoid receptor activity (luminescence)” value [1] is reported as “inhibited intracellular glucocorticoid receptor activity in a concentration-dependent manner” and the “intracellular fat accumulation (Oil Red O, O.D. at 515 nm)” value (3T3-L1 cells) is reported as “reduction of intracellular fat accumulation in a concentration-dependent manner”.
